ChEMBL document CHEMBL3734742, “Discovery of 2-aryloxy-4-amino-quinazoline derivatives as novel protease-activated receptor 2 (PAR2) antagonists” (Bioorg Med Chem, 2015)
Activity calls are given as the source filed them. No cut-off for these calls is given here.

Tests used:
[1] = target: Proteinase-activated receptor 2 (Homo sapiens) (UniProt P55085); test: Antagonist activity at protease-activated receptor 2 (unknown origin) expressed in CHO-K1 cells assessed as inhibition of trypsin-induced calcium flux at 10 uM by FLIPR assay; type: functional, cell-based
[2] = target: T1, Proteinase-activated receptor 2 (Homo sapiens, UniProt P55085); test: Displacement of [3H]furoyl-LIGRL-NH2 from human protease-activated receptor 2 in NCTC-2544 cells; type: cell-based
T1 sequence (P55085 whole entry): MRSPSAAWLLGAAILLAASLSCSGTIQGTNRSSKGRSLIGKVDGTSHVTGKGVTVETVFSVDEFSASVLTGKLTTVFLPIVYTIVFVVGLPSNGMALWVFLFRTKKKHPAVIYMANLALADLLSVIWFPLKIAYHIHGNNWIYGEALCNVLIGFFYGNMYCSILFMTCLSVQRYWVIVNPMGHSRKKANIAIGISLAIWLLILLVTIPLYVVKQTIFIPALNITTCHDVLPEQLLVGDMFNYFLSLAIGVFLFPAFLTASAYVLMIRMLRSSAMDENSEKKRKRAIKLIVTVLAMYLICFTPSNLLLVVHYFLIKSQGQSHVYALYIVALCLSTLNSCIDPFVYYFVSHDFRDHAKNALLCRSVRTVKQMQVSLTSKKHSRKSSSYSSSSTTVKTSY

[3] = test system: RAW264.7; test: Antiinflammatory activity in mouse RAW264.7 cells assessed as inhibition of LPS-induced PGE2 production at 3 uM for 1 hr followed by stimulation with LPS for 24 hrs […]; type: functional, cell-based
[4] = target: T1, Proteinase-activated receptor 2; test: Antagonist activity at protease-activated receptor 2 (unknown origin) expressed in CHO-K1 cells assessed as inhibition of trypsin-induced calcium flux by FLIPR assay; type: functional, cell-based
[5] = target: Proteinase-activated receptor 2 (Homo sapiens) (UniProt P55085); test: Antagonist activity at trypsin-induced protease-activated receptor 2 activation (unknown origin) expressed in CHO-K1 cells assessed as receptor internalization at 30 uM after 1 hr by immuno-fluorescence assay (reference value: 28%); type: cell-based; parameters: scale not given: the % may be the effect or the level left
[6] = test system: RAW264.7; test: Antiinflammatory activity in mouse RAW264.7 cells assessed as inhibition of LPS-induced TNFalpha expression compound pretreated for 1 hr followed by stimulation with LPS for 24 hrs by EIA; type: functional, cell-based
[7] = target: T2, Proteinase-activated receptor 2 (Mus musculus) (UniProt P55086); test: Antagonist activity at protease-activated receptor 2 in LPS-stimulated mouse RAW264.7 cells assessed as inhibition of NF-kappaB activation compound pretreated for 1 hr followed by stimulation with LPS for 8 hrs by luciferase reporter gene assay; type: cell-based
T2 sequence (whole entry): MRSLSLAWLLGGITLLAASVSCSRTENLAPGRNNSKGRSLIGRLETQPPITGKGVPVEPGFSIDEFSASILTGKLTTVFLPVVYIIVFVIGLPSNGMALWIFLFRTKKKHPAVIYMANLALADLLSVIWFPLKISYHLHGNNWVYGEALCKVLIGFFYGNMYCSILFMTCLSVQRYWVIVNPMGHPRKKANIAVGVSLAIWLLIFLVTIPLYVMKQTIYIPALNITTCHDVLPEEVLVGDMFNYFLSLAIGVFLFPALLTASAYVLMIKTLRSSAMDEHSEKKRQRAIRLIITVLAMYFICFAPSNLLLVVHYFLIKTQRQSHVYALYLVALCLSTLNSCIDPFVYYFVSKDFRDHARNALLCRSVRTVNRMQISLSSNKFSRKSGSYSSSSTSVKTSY

[8] = test system: RAW264.7; test: Antiinflammatory activity in mouse RAW264.7 cells assessed as inhibition of LPS-induced IL-6 expression compound pretreated for 1 hr followed by stimulation with LPS for 24 hrs by EIA; type: functional, cell-based
[9] = test system: Mus musculus; test: Antiinflammatory activity in C57BL/6 mouse assessed as reduction of LPS-induced sepsis at 15 mg/kg, po administered 1 hr before LPS challenge measured up to 60 hrs; type: functional; parameters: scale not given: the % may be the effect or the level left
[10] = test system: RAW264.7; test: Antiinflammatory activity in mouse RAW264.7 cells assessed as inhibition of LPS-induced NO production at 5 to 50 uM for 1 hr followed by stimulation with LPS for 24 hrs by Griess reaction; type: functional, cell-based
[11] = target: MAP kinase p38 (Mus musculus) (UniProt P47811+O08911+Q9WUI1+Q9Z1B7); test: Inhibition of LPS-induced p38 phosphorylation in mouse RAW264.7 cells at 5 to 50 uM for 1 hr followed by stimulation with LPS for 5,10 or 15 mins by western blot analysis; type: cell-based
[12] = test system: RAW264.7; test: Cytotoxicity against mouse RAW264.7 cells assessed as cell viability at 3.125 to 200 uM after 24 hrs by MTT assay; type: cell-based; conditions: raw264.7, 24 h
[13] = test system: RAW264.7; test: Inhibition of LPS-induced Erk phosphorylation in mouse RAW264.7 cells at 5 to 50 uM for 1 hr followed by stimulation with LPS for 5,10 or 15 mins by western blot analysis; type: cell-based
[14] = test system: Mus musculus; test: Antiinflammatory activity in C57BL/6 mouse assessed as reduction of LPS-induced sepsis at 30 mg/kg, po administered 1 hr before LPS challenge measured up to 60 hrs; type: functional; parameters: scale not given: the % may be the effect or the level left
[15] = test system: RAW264.7; test: Antiinflammatory activity in mouse RAW264.7 cells assessed as inhibition of LPS-induced COX2 expression at 5 to 50 uM for 1 hr followed by stimulation with LPS for 24 hrs by Western blot analysis; type: functional, cell-based
[16] = test system: Mus musculus; test: Antiinflammatory activity in C57BL/6 mouse assessed as reduction of LPS-induced sepsis at 7.5 mg/kg, po administered 1 hr before LPS challenge measured up to 60 hrs; type: functional; parameters: scale not given: the % may be the effect or the level left
[17] = test system: RAW264.7; test: Antiinflammatory activity in mouse RAW264.7 cells assessed as inhibition of LPS-induced IL-1beta expression compound pretreated for 1 hr followed by stimulation with LPS for 24 hrs by EIA; type: functional, cell-based
[18] = test system: RAW264.7; test: Antiinflammatory activity in mouse RAW264.7 cells assessed as inhibition of LPS-induced iNOS expression compound pretreated for 1 hr followed by stimulation with LPS for 24 hrs by Western blot analysis; type: functional, cell-based
[19] = test system: RAW264.7; test: Antiinflammatory activity in mouse RAW264.7 cells assessed as inhibition of LPS-induced PGE2 production at 5 to 50 uM for 1 hr followed by stimulation with LPS for 24 hrs […]; type: functional, cell-based
[20] = test system: RAW264.7; test: Antiinflammatory activity in mouse RAW264.7 cells assessed as inhibition of LPS-induced iNOS mRNA level compound pretreated for 1 hr followed by stimulation with LPS for 24 hrs by qRT-PCR analysis; type: functional, cell-based
[21] = test system: RAW264.7; test: Inhibition of LPS-induced JNK phosphorylation in mouse RAW264.7 cells at 5 to 50 uM for 1 hr followed by stimulation with LPS for 5,10 or 15 mins by western blot analysis; type: cell-based
[22] = target: T2, Proteinase-activated receptor 2 (Mus musculus); test: Antagonist activity at protease-activated receptor 2 in LPS-stimulated mouse RAW264.7 cells assessed as inhibition of AP-1 activation compound pretreated for 1 hr followed by stimulation with LPS for 8 hrs by luciferase reporter gene assay; type: cell-based
[23] = test system: RAW264.7; test: Antiinflammatory activity in mouse RAW264.7 cells assessed as inhibition of LPS-induced COX2 mRNA expression at 5 to 50 uM for 1 hr followed by stimulation with LPS for 4 hrs QT-PCR analysis; type: functional, cell-based
[24] = target: T1, Proteinase-activated receptor 2; test: Antagonist activity at protease-activated receptor 2 (unknown origin)

Compound: Clc1cc(Cl)cc(COc2nc(NCc3ccco3)c3ccccc3n2)c1
- inhibition [1]: inactive

Compound: NCC[C@H](NC(=O)CNC(=O)Nc1ccc2c(c1)c(CN1CCCC1)cn2Cc1c(Cl)cccc1Cl)C(=O)N[C@H](Cc1ccccc1)C(=O)Nc1ccccc1
- Ki [2]: 1.94 µM

Compound: Cc1ccoc1CNc1nc(Oc2cccc(Cl)c2)nc2ccccc12
- inhibition [1]: inactive

Compound: CS(=O)(=O)Nc1ccc([N+](=O)[O-])cc1OC1CCCCC1
- inhibition [3]: Active

Compound: Cc1ccoc1CNc1nc(Oc2ccc(Cl)c(Cl)c2)nc2ccc(F)cc12
- inhibition [1]: < 10%

Compound: COc1ccc2nc(Oc3cc(Cl)cc(Cl)c3)nc(NCc3ccco3)c2c1
- inhibition [1]: inactive

Compound: COc1ccc2nc(Oc3cccc(Cl)c3)nc(NCc3ccco3)c2c1
- inhibition [1]: inactive

Compound: Clc1ccc(COc2nc(NCc3ccco3)c3ccccc3n2)c(Cl)c1
- inhibition [1]: 16.5%

Compound: Clc1ccc(Oc2nc(NCc3ccco3)c3cc(Cl)ccc3n2)c(Cl)c1
- inhibition [1]: < 10%

Compound: Cc1ccoc1CNc1nc(Oc2ccc(Cl)cc2Cl)nc2ccccc12
- inhibition [1]: inactive

Compound: NCCCC[C@H](NC(=O)CNC(=O)Nc1ccc2c(c1)c(CN1CCCC1)cn2Cc1c(Cl)cccc1Cl)C(=O)N[C@H](Cc1ccccc1)C(=O)NC(c1ccccc1)c1ccccc1
- Ki [2]: 0.627 µM

Compound: COc1ccc2nc(Oc3ccc(Cl)c(Cl)c3)nc(NCc3ccco3)c2c1
- inhibition [1]: inactive

Compound: CCCCCNc1nc(NCc2ccco2)c2cc(F)ccc2n1
- inhibition [1]: 73.2%
- IC50 [4]: 0.69 µM

Compound: COc1ccc2nc(Oc3ccc(Cl)cc3Cl)nc(NCc3occc3C)c2c1
- inhibition [1]: 33.1%
- IC50 [4]: > 10 µM

Compound: Clc1ccc(Oc2nc(NCc3ccco3)c3ccccc3n2)cc1Cl
- inhibition [1]: inactive

Compound: Cc1ccc(CNc2nc(Oc3cc(Cl)cc(Cl)c3)nc3ccc(F)cc23)o1
- inhibition [1]: < 10%
- Activity [5]: 24%

Compound: Cc1ccc(CNc2nc(Oc3ccc(Cl)cc3Cl)nc3ccc(Cl)cc23)o1
- inhibition [1]: inactive

Compound: COc1ccc(Oc2nc(NCc3occc3C)c3ccccc3n2)cc1
- inhibition [1]: 23.1%

Compound: Cc1ccoc1CNc1nc(Oc2cc(Cl)cc(Cl)c2)nc2ccc(F)cc12
- inhibition [6]: Dose-dependent effect
- inhibition [7]: Dose-dependent effect
- inhibition [8]: Dose-dependent effect
- Activity [9]: 60%
- inhibition [10]: Active
- inhibition [11]: inactive
- Activity [12]: Non-toxic
- inhibition [13]: Active
- inhibition [1]: 47.7%
- Activity [14]: 20%
- inhibition [15]: Active
- Activity [5]: 12%
- IC50 [4]: 2.8 µM
- Activity [16]: 80%
- inhibition [17]: Dose-dependent effect
- inhibition [18]: Dose-dependent effect
- inhibition [19]: Active
- inhibition [20]: Dose-dependent effect
- inhibition [21]: inactive
- inhibition [22]: Dose-dependent effect
- inhibition [23]: Active

Compound: CC[C@H](C)[C@H](NC(=O)[C@H](CC1CCCCC1)NC(=O)c1ccno1)C(=O)N1CCC2(C=Cc3ccccc32)CC1
- IC50 [24]: 2 µM

Compound: Cc1ccc(CNc2nc(Oc3ccc(Cl)c(Cl)c3)nc3ccc(F)cc23)o1
- inhibition [1]: inactive
